# Measurements: publication PMC3920478, “Small molecule-mediated refolding and activation of myosin motor function” (eLife, 2014)
# Assays:
# [1] = tested on: phosphodiesterase III; design: method as in Gambassi et al., 1993; settings: ref Gambassi et al., 1993; cited from earlier work
# [2] = target: T1, Dd myosin-2 ΔSH3 (lacks residues 33–79) (Dictyostelium discoideum, UniProt P08799, DEL33-79); test: Direct binding to truncated construct; settings: construct lacks SH3-like β-barrel
# T1 construct: Dd myosin-2 ΔSH3, a recombinant motor domain construct that lacks this subdomain; made in house
# T1 sequence (P08799 other isoform, or with tags, fused parts or gaps DEL33-79): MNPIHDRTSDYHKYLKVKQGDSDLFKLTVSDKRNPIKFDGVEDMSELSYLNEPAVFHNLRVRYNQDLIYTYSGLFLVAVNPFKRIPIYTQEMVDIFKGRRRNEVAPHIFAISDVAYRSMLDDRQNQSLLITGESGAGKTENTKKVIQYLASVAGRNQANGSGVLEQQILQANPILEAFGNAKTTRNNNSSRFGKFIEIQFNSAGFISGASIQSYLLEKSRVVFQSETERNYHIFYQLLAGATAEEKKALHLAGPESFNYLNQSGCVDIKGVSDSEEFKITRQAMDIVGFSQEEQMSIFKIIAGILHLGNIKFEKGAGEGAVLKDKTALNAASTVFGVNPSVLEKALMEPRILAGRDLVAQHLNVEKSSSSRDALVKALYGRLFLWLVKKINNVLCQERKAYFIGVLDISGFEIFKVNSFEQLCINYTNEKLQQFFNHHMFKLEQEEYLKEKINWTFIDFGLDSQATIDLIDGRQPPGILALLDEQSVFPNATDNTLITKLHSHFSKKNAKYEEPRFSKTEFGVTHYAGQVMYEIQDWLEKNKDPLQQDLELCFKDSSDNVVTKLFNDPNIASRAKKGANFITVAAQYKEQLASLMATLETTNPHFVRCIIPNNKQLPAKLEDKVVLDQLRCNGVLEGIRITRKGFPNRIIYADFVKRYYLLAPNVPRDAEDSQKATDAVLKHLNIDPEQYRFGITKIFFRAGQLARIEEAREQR
# [3] = tested on: dogs with heart failure; design: method as in Senzaki et al., 2000; settings: ref Senzaki et al., 2000; cited from earlier work
# [4] = target: T2, complex formed by the β-cardiac myosin motor domain with F-actin (Sus scrofa, UniProt P79293); test: Melting curve by differential static light scattering; settings: 100 µM EMD 57033
# T2 construct: Melting curves of the complex formed by the β-cardiac myosin motor domain with F-actin; from tissue; host or cells: porcine cardiac muscle (myosin)
# T2 sequence (P79293 1-843 limits assumed, one chain of several): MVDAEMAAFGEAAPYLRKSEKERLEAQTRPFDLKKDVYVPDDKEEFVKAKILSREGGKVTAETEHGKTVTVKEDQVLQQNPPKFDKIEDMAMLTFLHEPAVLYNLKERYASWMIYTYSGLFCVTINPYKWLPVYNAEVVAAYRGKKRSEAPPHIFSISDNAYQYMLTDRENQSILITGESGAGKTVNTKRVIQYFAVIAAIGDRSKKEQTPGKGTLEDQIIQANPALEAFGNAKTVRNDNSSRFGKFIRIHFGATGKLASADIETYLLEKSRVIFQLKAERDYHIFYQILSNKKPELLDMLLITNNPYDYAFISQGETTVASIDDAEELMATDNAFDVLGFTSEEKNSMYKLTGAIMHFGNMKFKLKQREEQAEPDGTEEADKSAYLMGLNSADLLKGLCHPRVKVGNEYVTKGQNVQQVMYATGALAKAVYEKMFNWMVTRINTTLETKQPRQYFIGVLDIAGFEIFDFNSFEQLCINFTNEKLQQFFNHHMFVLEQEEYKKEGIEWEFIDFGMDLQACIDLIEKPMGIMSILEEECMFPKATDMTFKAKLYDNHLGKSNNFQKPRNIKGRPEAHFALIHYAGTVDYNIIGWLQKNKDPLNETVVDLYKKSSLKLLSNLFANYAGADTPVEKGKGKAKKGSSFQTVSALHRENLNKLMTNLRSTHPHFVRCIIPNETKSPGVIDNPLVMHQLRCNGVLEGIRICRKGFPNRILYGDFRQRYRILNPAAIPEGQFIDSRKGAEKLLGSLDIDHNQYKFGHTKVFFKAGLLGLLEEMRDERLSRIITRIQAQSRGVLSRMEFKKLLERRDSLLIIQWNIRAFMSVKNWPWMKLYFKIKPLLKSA
# Method: Circular dichroism and differential static light scattering experiments were performed to determine Tm.
# Protein stability was assayed following protein aggregation associated with heat denaturation ([Senisterra et al., 2006]). Protein solutions were diluted to a concentration of 0.2 mg/ml in a buffer containing 5 mM KPi pH 7.5, 25 mM KCl and heated in steps of 0.6°C. Static light scattering was measured at each temperature step and the resulting transition curve was fitted by a Boltzmann function. The transition midpoint gives a measure for the aggregation temperature induced by protein denaturation.
# [5] = target: T3, Dd myosin-2 motor domain (Dictyostelium discoideum, UniProt P08799); test: Microscale thermophoresis direct binding; settings: 100 nM, read-out: Binding affinity (MST), KD
# T3 sequence (P08799 1-761 limits assumed): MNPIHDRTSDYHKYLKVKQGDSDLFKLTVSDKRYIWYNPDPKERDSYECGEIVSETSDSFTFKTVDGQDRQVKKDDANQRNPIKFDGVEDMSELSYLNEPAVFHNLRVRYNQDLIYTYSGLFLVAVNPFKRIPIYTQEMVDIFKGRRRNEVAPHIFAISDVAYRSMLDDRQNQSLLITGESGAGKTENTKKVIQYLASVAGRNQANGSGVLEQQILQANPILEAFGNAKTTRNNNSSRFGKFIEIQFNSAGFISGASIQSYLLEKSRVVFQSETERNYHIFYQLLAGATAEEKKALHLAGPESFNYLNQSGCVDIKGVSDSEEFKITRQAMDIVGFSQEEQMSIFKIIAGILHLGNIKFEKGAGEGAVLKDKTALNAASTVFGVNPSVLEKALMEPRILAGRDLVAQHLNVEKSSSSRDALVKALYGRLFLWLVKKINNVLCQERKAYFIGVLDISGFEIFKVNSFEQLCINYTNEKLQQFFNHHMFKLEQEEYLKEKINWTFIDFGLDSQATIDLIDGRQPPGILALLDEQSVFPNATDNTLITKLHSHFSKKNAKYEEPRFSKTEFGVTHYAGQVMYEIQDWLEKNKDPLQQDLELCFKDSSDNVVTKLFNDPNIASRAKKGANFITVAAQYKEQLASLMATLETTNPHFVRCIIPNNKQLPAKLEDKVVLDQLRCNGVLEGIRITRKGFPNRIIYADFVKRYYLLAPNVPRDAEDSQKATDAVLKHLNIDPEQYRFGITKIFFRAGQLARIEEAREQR
# Text: Proteolytic fragments were further purified by actin-coprecipitation.
# [6] = target: T4, Dd myosin-2 ΔSH3 (lacks residues 33–79) (Dictyostelium discoideum, UniProt P08799, DEL34-80); test: Steady-state basal and actin-activated Mg2+-ATPase (NADH-coupled assay); type: biochemical
# T4 construct: Dd myosin-2 ΔSH3, a recombinant motor domain construct that lacks this subdomain; made in house
# T4 sequence (P08799 other isoform, or with tags, fused parts or gaps DEL34-80): as the sequence (P08799 other isoform, or with tags, fused parts or gaps DEL33-79) above
# Text: Initial blind docking to homology models of the β-cardiac myosin motor domain in the post-rigor state indicated preferred binding of the drug to a region near the small N-terminal, SH3-like βbarrel subdomain. Important contacts are predicted to involve the SH3-like subdomain (residues 34–72) and two α-helices (residues 20–28 and 98–111). […] The sets of binding poses differ mainly in the orientation of the dimethylated catechol group, occupying either of the two possible branches of the Y, while the thiadiazinone moiety appears little affected and resides in the root of the Y shaped cavity (Figure 2A,B). Potential residues involved in the binding of the thiadiazinone and tetrahydroquinoline moieties of the compound include Arg23, Asp85, Lys86, Asp107, Arg108, and Ser111. The dimethylated catechol moiety is mainly bound by residues Lys34, Lys48, and Gln79, and thus, interacts with the SH3-like β-barrel.
# Basal and actin-activated Mg^2+-ATPase activities were measured using the NADH-coupled assay described previously ([Furch et al., 1998]) adapted for higher throughput screens for a temperature controlled plate reader (Multiscan FC, Thermo Scientific, Waltham, MA) at 25°C. EMD 57033 was added to the reaction mixture in the absence of nucleotide and incubated before the reaction was started by the addition of ATP. Control measurements were carried out in the absence of drug, as well as in the presence of according concentrations of the non-binding (−)-enantiomer EMD 57439 to account for possible absorption effects. […] Data points are mean values from 3 to 5 independent experiments. Error bars indicate standard deviations.
# [7] = target: T3, Dd myosin-2 motor domain; test: In vitro motility assay (actin filament sliding); type: biochemical
# Text: In addition, the fraction of moving filaments increased from <75% to >95%. […] In initial experiments, we determined the minimal concentration of α-actinin molecules that generate sufficient load to stall the movement of actin filaments for a given surface density of myosin heads. […] Next, we generated in vitro motility flow cells with actin filaments held at stall force. […] The time-dependence of the recovery of motile activity is best fit by a hyperbola. A plateau value of 0.4 μm s^−1 is reached after more than 2 hr (Figure 1G).
# Actin-sliding motility was performed at 20°C using an Olympus IX81 (Olympus, Hamburg, Germany) inverted fluorescence microscope as described previously ([Fujita-Becker et al., 2005]). Average sliding velocities were determined from the Gaussian distribution of automatically tracked actin filaments using DiaTrack 3.01 (Semasopht, Chavannes, Switzerland) and Origin 7.0 (OriginLab Corporation, Northampton, MA). Errors indicate standard deviations.
compound,measurement,setting,value
COc1ccc(C(=O)N2CCCc3cc(C4=NNC(=O)SC4C)ccc32)cc1OC (stereo not shown) [EMD 57033],Phosphodiesterase III inhibition,[1],only minimal phosphodiesterase III inhibitory effects
same,Direct binding,[2],neither binding
same,Haemodynamic effects in failing heart,[3],"potent positive inotropic effects, reduced oxygen cost of contraction, and enhanced diastolic chamber performance"
same,Tm (mid-point of transition),[4],66.4 ± 3 °C
same,Kd,[5],23 µM
same,Normalized maximal ATPase activation (basal),[6],no effect
same,Normalized maximal ATPase activation (with 30 µM actin),[6]; 30 µM actin,no effect
same,ATPase / chemomechanical activation of the truncated construct,[6]; 100 µM EMD 57033,no significant activation
same,Increase of actin filament sliding velocity,[7]; 100 µM EMD 57033,1.6 fold
same,Average sliding velocity of actin filaments,[7]; in presence of 100 µM EMD 57033,1.35 ± 0.2 µm s^−1
